Test results as given in patent publication US5475010A, “7'-amino-naphthazarin antibiotic derivatives” (Gruppo Lepetit S.p.A., priority 1991, dated 1995).
Values after ≈ are worked out from the molar mass of the structure shown. Where two headings read alike, the source gives them in different places.

Legend:
[1] = tested on: Streptococcus pyogenes C 203; assay: MIC by broth microdilution, Streptococcus pyogenes; format: cell-based; conditions: C203
[2] = tested on: Pseudomonas aeruginosa ATCC 10145; assay: MIC by broth microdilution, Pseudomonas aeruginosa; format: cell-based; conditions: ATCC10145, Table 2, internal code 4, approx. 10^4 cfu/ml, Iso-Sensitest broth, 37° C., 20-24 h, air
[3] = tested on: Staphilococcus aureus Tour; assay: MIC by broth microdilution, Staphylococcus aureus Tour; format: cell-based; conditions: Iso-Sensitest broth, 37° C., 20-24 h, air
[4] = tested on: Neisseria gonorrhoeae ISM 68/126; assay: MIC by broth microdilution, Neisseria gonorrhoeae; format: cell-based; conditions: ISM68/126, Table 2, internal code 997, approx. 10^4 cfu/ml, GC Base broth + 1% IsoVitaleX, 37° C., 48 h, 5% CO2
[5] = tested on: Tricophyton mentagrophytes; assay: MIC by broth microdilution, Trichophyton mentagrophytes; format: cell-based; conditions: Table 2, internal code 634, 1% (v/v) suspension of mycelia and conidia, YM broth, 30° C., 72 h, air, read-out: MIC
[6] = tested on: Enterococcus faecalis ATCC 7080; assay: MIC by broth microdilution, Enterococcus faecalis; format: cell-based; conditions: ATCC7080
[7] = tested on: Staphilococcus epidermidis ATCC 12228; assay: MIC by broth microdilution, Staphylococcus epidermidis; format: cell-based; conditions: ATCC12228, Table 2, internal code 147, approx. 10^4 cfu/ml, Iso-Sensitest broth, 37° C., 20-24 h, air, read-out: MIC
[8] = tested on: Escherichia coli SKF 12140; assay: MIC by broth microdilution, Escherichia coli; format: cell-based; conditions: SKF12140
[9] = tested on: Candida albicans SKF 2270; assay: MIC by broth microdilution, Candida albicans; format: cell-based; conditions: Table 2; internal code 145; approx. 10^4 cfu/ml; buffered Yeast Nitrogen Base broth + glucose + L-asparagine; 37° C., 20-24 h, air
[10] = tested on: Staphilococcus haemolyticus (clin. isolate); assay: MIC by broth microdilution, Staphylococcus haemolyticus; format: cell-based; conditions: Table 2, internal code 602, approx. 10^4 cfu/ml, Iso-Sensitest broth, 37° C., 20-24 h, air, read-out: MIC
[11] = tested on: Haemophilus influenzae type b ATCC 19418; assay: MIC by broth microdilution, Haemophilus influenzae; format: cell-based; conditions: ATCC19418, Table 2, internal code 970, approx. 10^4 cfu/ml, Brain Heart infusion broth + 1% Supplement C, 37° C., 48 h, 5% CO2
[12] = tested on: Streptococcus pneumonieae UC 41; assay: MIC by broth microdilution, Streptococcus pneumoniae; format: cell-based; conditions: UC41, Table 2, internal code 44, approx. 10^4 cfu/ml, Todd Hewitt broth, 37° C., 20-24 h, air, read-out: MIC
[13] = tested on: Proteus vulgaris X19H ATCC 881; assay: MIC by broth microdilution, Proteus vulgaris; format: cell-based; conditions: ATCC881
[14] = tested on: Propionibacterium acnes ATCC 6919; assay: MIC by broth microdilution, Propionibacterium acnes; format: cell-based; conditions: Cutibacterium acnes, ATCC6919; Table 2; internal code 1014; approx. 10^4 cfu/ml; Wilkins-Chalgren broth; 37° C., 48 h, N2-CO2-H2 (80:10:10); read-out: MIC
[15] = tested on: Bacteroides fragiles ATCC 9689; assay: MIC by broth microdilution, Bacteroides fragilis; format: cell-based; conditions: ATCC9689, Table 2, internal code 1010, approx. 10^4 cfu/ml, Wilkins-Chalgren broth, 37° C., 48 h, N2-CO2-H2 (80:10:10)
[16] = tested on: Gram-positive and Gram-negative bacteria; conditions: in vitro, known / U.S. Pat. No. 3,914,257, cited from earlier work
[17] = tested on: fungi, including filamentous fungi (e.g., Trichophyton mentarophytes) and yeasts (e.g., Candida albicans); conditions: in vitro; U.S. Pat. No. 3,914,257; cited from earlier work

Structure (SMILES) | MIC [1] [µg/mL] | MIC [2] [µg/mL] | MIC ([3]; Table 2, internal code 165, + 30% bovine serum) [µg/mL] | MIC ([3]; Table 2, internal code 165, inoculum 10^6 cfu/ml, read-out: MIC) [µg/mL] | MIC ([3]; Table 2, internal code 165, inoculum approx. 10^4 cfu/ml, read-out: MIC) [µg/mL] | MIC [4] [µg/mL] | MIC [5] [µg/mL] | MIC [6] [µg/mL] | MIC [7] [µg/mL] | MIC [8] [µg/mL] | MIC [9] [µg/mL] | MIC [10] [µg/mL] | MIC [11] [µg/mL] | MIC [12] [µg/mL] | MIC [13] [µg/mL] | MIC [14] [µg/mL] | MIC [15] [µg/mL] | antimicrobial activity against Gram-positive and Gram-negative bacteria [16] | antimicrobial activity against Gram-positive and Gram-negative bacteria ([16]; listed as purpuromycin) | activity against fungi [17]
CNC1=CC(=O)c2c(O)c3c(c(O)c2C1=O)OC1(C3)CC(O)c2cc3cc(C(=O)OC)oc(=O)c3c(O)c2O1 (centres unmarked) [Example 14, 7'-methylamino purpuromycin] | 0.03 (≈ 0.0558 µM) | > 128 | 0.25 | 0.06 (≈ 0.112 µM) | 0.016 (≈ 0.0298 µM) | 0.06 | ≤ 0.13 | 0.03 (≈ 0.0558 µM) | 0.008 (≈ 0.0149 µM) | > 128 | 2 | 0.016 (≈ 0.0298 µM) | 0.13 | 0.016 (≈ 0.0298 µM) | > 128 | 0.008 (≈ 0.0149 µM) | 0.03 (≈ 0.0558 µM) |  |  | 
COC(=O)c1cc2cc3c(c(O)c2c(=O)o1)OC1(Cc2c(O)c4c(c(O)c2O1)C(=O)C(OC)=CC4=O)CC3O (centres unmarked) [Purpuromycin, purpuromycin] |  |  |  |  |  |  |  |  |  |  |  |  |  |  |  |  |  | known antimicrobial agents against Gram-positive and Gram-negative bacteria | active in vitro | active in vitro
